Patent US7589169B2, “Compositions for treatment with glucagon-like peptide, and methods of making and using the same” (Pharmain Corporation, priority 2002, dated 2009)

System: rat pancreatic ductal cell line ARIP
Test: Trans-differentiation of ARIP ductal cells, RT-PCR of beta-cell specific genes
Type: cell-based
Conditions: ARIP cells cultured with GLP-1, RT-PCR
Method: Based on previous studies, insulin mRNA should be detectable after 48 h, GLUT-2 after 24 h and glucokinase mRNA at 72 h. […] RT-PCR for β-actin will be used as a control for cDNA loading.

glucagon-like peptide 1 [GLP-1]
time after which GLUT-2 mRNA should be detectable: 24 h | time after which insulin mRNA should be detectable: 48 h | time at which glucokinase mRNA should be detectable: 72 h
